According to patent US9499550B2 (BRISTOL-MYERS SQUIBB COMPANY, priority 2012, dated 2016):
pEC50: −log10 of the molar value.

How the values were obtained:
[1] = system: HCV genotype 1a (H77 strain) replicon in HUH-7 cells; experiment: HCV replicon luciferase reporter assay, genotype 1a; type: cell-based; conditions: Hepatitis C virus, Huh-7, 72 h, HCV genotype 1a replicon luciferase, 3 days incubation, read-out: LE_1a (EC50, range)
In short: (§1)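 Replicon inhibition for both genotypes was measured as Renilla luciferase signal (EnduRen, 7.5 μM final, 2 h) after 3-day, 37° C exposure of replicon-bearing HUH-7 cells in 4% FCS DMEM, 0.5% DMSO. The 1b construct carries S1179I; the 1a H77 construct carries P1496L and S2204I. Twenty-point, 3-fold dilutions were fitted four-parametrically for EC50, and CC50 was taken from multiplexed Cell Titer-Blue.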

[2] = system: HCV genotype 1b (Con1) replicon in HUH-7 cells; experiment: HCV replicon luciferase reporter assay, genotype 1b; type: cell-based; conditions: Hepatitis C virus, Huh-7, 72 h, HCV genotype 1b replicon luciferase, 3 days incubation, read-out: LE_1b (EC50, range)
In short: as §1

Row | SMILES | pEC50 [1] | pEC50 [2]
1 | C[C@@H]1CC/C=C\[C@@H]2C[C@@]2(C(=O)NS(=O)(=O)C2(C)CC2)NC(=O)[C@@H]2C[C@@H](Oc3nccc4c(N5CCOCC5)cccc34)CN2C(=O)[C@@H](NC(=O)OC(C)(C)C)[C@H](C)C1 [Compound 5122, tert-butyl ((2R,6S,7R,9R,13aS,14aR,16aS,Z)-7,9-dimethyl-14a-(((1-methylcyclopropyl)sulfonyl)carbamoyl)-2-((5-morpholinoisoquinolin-1-yl)oxy)-5,16-dioxo-1,2,3,5,6,7,8,9,10,11,13a,14,14a,15,16,16a-hexadecahydrocyclopropa[e]pyrrolo[1,2-a][1,4]diazacyclopentadecin-6-yl)carbamate] | > 8.26 | > 8.26
2 | CCOc1ccc2c(O[C@@H]3C[C@H]4C(=O)N[C@]5(C(=O)NS(=O)(=O)C6CC6)C[C@H]5/C=C\CC[C@H](C)C[C@@H](C)[C@H](NC(=O)OC(C)(C)C)C(=O)N4C3)nccc2c1 [Compound 5127, tert-butyl ((2R,6S,7R,9S,13aS,14aR,16aS,Z)-14a-((cyclopropylsulfonyl)carbamoyl)-2-((6-ethoxyisoquinoline-1-yl)oxy)-7,9-dimethyl-5,16-dioxo-1,2,3,5,6,7,8,9,10,11,13a,14,14a,15,16,16a-hexadecahydrocyclopropa[e]pyrrolo[1,2-a][1,4]diazacyclopentadecin-6-yl)carbamate] | > 8.26 | > 8.26
3 | CCOc1ccc2c(O[C@@H]3C[C@H]4C(=O)N[C@]5(C(=O)NS(=O)(=O)C6CC6)C[C@H]5/C=C\CC[C@@H](C)C[C@@H](C)[C@H](NC(=O)OC(C)(C)C)C(=O)N4C3)nccc2c1 [Compound 5128, tert-butyl ((2R,6S,7R,9R,13aS,14aR,16aS,Z)-14a-((cyclopropylsulfonyl)carbamoyl)-2-((6-ethoxyisoquinolin-1-yl)oxy)-7,9-dimethyl-5,16-dioxo-1,2,3,5,6,7,8,9,10,11,13a,14,14a,15,16,16a-hexadecahydrocyclopropa[e]pyrrolo[1,2-a][1,4]diazacyclopentadecin-6-yl)carbamate] | > 8.26 | > 8.26
4 | CCOc1ccc2c(O[C@@H]3C[C@H]4C(=O)N[C@]5(C(=O)NS(=O)(=O)C6(C)CC6)C[C@H]5/C=C\CC[C@H](C)C[C@@H](C)[C@H](NC(=O)OC(C)(C)C)C(=O)N4C3)nccc2c1 [Compound 5133, tert-butyl ((2R,6S,7R,9S,13aS,14aR,16aS,Z)-2-((6-ethoxyisoquinolin-1-yl)oxy)-7,9-dimethyl-14a-(((1-methylcyclopropyl)sulfonyl)carbamoyl)-5,16-dioxo-1,2,3,5,6,7,8,9,10,11,13a,14,14a,15,16,16a-hexadecahydrocyclopropa[e]pyrrolo[1,2-a][1,4]diazacyclopentadecin-6-yl)carbamate] | 6.99 to 8.32 | > 8.26
5 | CCOc1ccc2c(O[C@@H]3C[C@H]4C(=O)N[C@]5(C(=O)NS(=O)(=O)C6(C)CC6)C[C@H]5/C=C\CC[C@@H](C)C[C@@H](C)[C@H](NC(=O)OC(C)(C)C)C(=O)N4C3)nccc2c1 [Compound 5134, tert-butyl ((2R,6S,7R,9R,13aS,14aR,16aS,Z)-2-((6-ethoxyisoquinolin-1-yl)oxy)-7,9-dimethyl-14a-(((1-methylcyclopropyl)sulfonyl)carbamoyl)-5,16-dioxo-1,2,3,5,6,7,8,9,10,11,13a,14,14a,15,16,16a-hexadecahydrocyclopropa[e]pyrrolo[1,2-a][1,4]diazacyclopentadecin-6-yl)carbamate] | > 8.26 | > 8.26
6 | CCOc1ccc2c(O[C@@H]3C[C@H]4C(=O)N[C@]5(C(=O)NS(=O)(=O)C6(C)CC6)C[C@H]5/C=C\CC[C@H](C)C[C@@H](C)[C@H](NC(=O)OCC5(C)CC5)C(=O)N4C3)nccc2c1 [Compound 5139, (1-methylcyclopropyl)methyl ((2R,6S,7R,9S,13aS,14aR,16aS,Z)-2-((6-ethoxyisoquinolin-1-yl)oxy)-7,9-dimethyl-14a-(((1-methylcyclopropyl)sulfonyl)carbamoyl)-5,16-dioxo-1,2,3,5,6,7,8,9,10,11,13a,14,14a,15,16,16a-hexadecahydrocyclopropa[e]pyrrolo[1,2-a][1,4]diazacyclopentadecin-6-yl)carbamate] | 6.99 to 8.32 | > 8.26
7 | CCOc1ccc2c(O[C@@H]3C[C@H]4C(=O)N[C@]5(C(=O)NS(=O)(=O)C6(C)CC6)C[C@H]5/C=C\CC[C@@H](C)C[C@@H](C)[C@H](NC(=O)OCC5(C)CC5)C(=O)N4C3)nccc2c1 [Compound 5140, (1-methylcyclopropyl)methyl ((2R,6S,7R,9R,13aS,14aR,16aS,Z)-2-((6-ethoxyisoquinolin-1-yl)oxy)-7,9-dimethyl-14a-(((1-methylcyclopropyl)sulfonyl)carbamoyl)-5,16-dioxo-1,2,3,5,6,7,8,9,10,11,13a,14,14a,15,16,16a-hexadecahydrocyclopropa[e]pyrrolo[1,2-a][1,4]diazacyclopentadecin-6-yl)carbamate] | > 8.26 | > 8.26
8 | CCOc1ccc2c(O[C@@H]3C[C@H]4C(=O)N[C@]5(C(=O)NS(=O)(=O)C6(C)CC6)C[C@H]5/C=C\CC[C@H](C)C[C@@H](C)[C@H](NC(=O)O[C@H](C)C(F)(F)F)C(=O)N4C3)nccc2c1 [Compound 5141, (R)-1,1,1-trifluoropropan-2-yl ((2R,6S,7R,9S,13aS,14aR,16aS,Z)-2-((6-ethoxyisoquinolin-1-yl)oxy)-7,9-dimethyl-14a-(((1-methylcyclopropyl)sulfonyl)carbamoyl)-5,16-dioxo-1,2,3,5,6,7,8,9,10,11,13a,14,14a,15,16,16a-hexadecahydrocyclopropa[e]pyrrolo[1,2-a][1,4]diazacyclopentadecin-6-yl)carbamate] | 6.99 to 8.32 | > 8.26
9 | CCOc1ccc2c(O[C@@H]3C[C@H]4C(=O)N[C@]5(C(=O)NS(=O)(=O)C6(C)CC6)C[C@H]5/C=C\CC[C@@H](C)C[C@@H](C)[C@H](NC(=O)O[C@H](C)C(F)(F)F)C(=O)N4C3)nccc2c1 [Compound 5142, (R)-1,1,1-trifluoropropan-2-yl ((2R,6S,7R,9R,13aS,14aR,16aS,Z)-2-((6-ethoxyisoquinolin-1-yl)oxy)-7,9-dimethyl-14a-(((1-methylcyclopropyl)sulfonyl)carbamoyl)-5,16-dioxo-1,2,3,5,6,7,8,9,10,11,13a,14,14a,15,16,16a-hexadecahydrocyclopropa[e]pyrrolo[1,2-a][1,4]diazacyclopentadecin-6-yl)carbamate] | > 8.26 | > 8.26
10 | CCOc1ccc2c(O[C@@H]3C[C@H]4C(=O)N[C@]5(C(=O)NS(=O)(=O)C6(C)CC6)C[C@H]5/C=C\CC[C@H](C)C[C@@H](C)[C@H](NC(=O)NC(C)(C)C(F)(F)F)C(=O)N4C3)nccc2c1 [Compound 5143, (2R,6S,7R,9S,13aS,14aR,16aS,Z)-2-((6-ethoxyisoquinolin-1-yl)oxy)-7,9-dimethyl-N-((1-methylcyclopropyl)sulfonyl)-5,16-dioxo-6-(3-(1,1,1-trifluoro-2-methylpropan-2-yl)ureido)-1,2,3,5,6,7,8,9,10,11,13a,14,14a,15,16,16a-hexadecahydrocyclopropa[e]pyrrolo[1,2-a][1,4]diazacyclopentadecine-14a-carboxamide] | 6.99 to 8.32 | > 8.26
